# Measured values as given in patent US20260083704A1, “LXR MODULATORS WITH BICYCLIC CORE MOIETY FOR TREATING DYSLIPIDEMIAS” (OrsoBio, Inc., priority 2022, published 2026).
# Assays:
# [1] = molecular target: T1, GST-LXRβ ligand-binding domain (Homo sapiens, UniProt P55055); test: TR-FRETβ activity assay (NCoA3 coactivator peptide recruitment); format: biochemical; conditions: 1 μM 24(S)-25-epoxycholesterol prestimulation
# T1 construct: amino acids 156-461; NP009052; made in house; host or cells: E. coli
# T1 sequence (P55055 156-460 limits assumed): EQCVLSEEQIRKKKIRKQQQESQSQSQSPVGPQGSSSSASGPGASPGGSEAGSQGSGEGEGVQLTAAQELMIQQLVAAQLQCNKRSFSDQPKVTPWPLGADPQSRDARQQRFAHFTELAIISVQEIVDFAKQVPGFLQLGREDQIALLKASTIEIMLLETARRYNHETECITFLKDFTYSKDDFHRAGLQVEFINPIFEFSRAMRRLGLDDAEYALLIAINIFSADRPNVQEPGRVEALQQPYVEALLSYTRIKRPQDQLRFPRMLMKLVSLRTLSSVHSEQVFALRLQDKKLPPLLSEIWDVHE
# In short: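 E. coli-expressed GST-LXRβ LBD (aa 156-461, 76 nM) with biotinylated NCoA3 peptide (400 nM) in Tris/HCl pH 6.8 containing 1 μM 24(S)-25-epoxycholesterol agonist. Compounds tested at 50 μM down to 0.002 μM in triplicate. TR-FRET (Tb cryptate/XL665, ex 340, em 615/665 nm) read after 1 h at 4° C.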
# LXRβ = molecular target: T2, LXRβ (Homo sapiens, UniProt P55055); test: LXR Gal4 reporter transient transfection assay (mammalian two-hybrid, HEK293), LXRβ; format: cell-based; conditions: ligand-binding domain (LBD) of LXRβ, HEK293; read-out: LBD-M2H Gal4β
# T2 construct: LXRβ (amino acids 156-461); expressed in transfected cells; host or cells: HEK293
# T2 sequence (P55055 156-460): T1 sequence (P55055 156-460 limits assumed)
# Description: LXRα and LXRβ activity status was determined via detection of interaction with coactivator and corepressor proteins in mammalian two-hybrid experiments (M2H). For this, via transient transfection the full length (FL) proteins of LXRα (amino acids 1-447; NP005684; SEQ ID NO:1) or LXRβ-(amino acids 1-461; NP009052; SEQ ID NO:2) or the ligand-binding domains (LBD) of LXRα (amino acids 155-447 SEQ ID NO:3) or LXRβ (amino acids 156-461; SEQ ID NO:4) were expressed from pCMV-AD (Stratagene) as fusions to the transcriptional activation domain of NFkB. As cofactors, domains of either the steroid receptor coactivator 1 (SRC1; amino acids 552-887; SEQ ID NO:5) or of the corepressor NCoR (amino acids 1906-2312; NP006302; SEQ ID NO:6) were expressed as fusions to the DNA binding domain of the yeast transcription factor GAL4 (from pCMV-BD; Stratagene). Interaction was monitored via activation of a coexpressed Firefly Luciferase Reporter gene under control of a promoter containing repetitive GAL4 response elements (vector pFRLuc; Stratagene). Transfection efficiency was controlled via cotransfection of constitutively active pRL-CMV Renilla reniformis luciferase reporter (Promega). HEK293 cells were grown in minimum essential medium (MEM) with 2 mM L-glutamine and Earle's balanced salt solution supplemented with 8.3% fetal bovine serum, 0.1 mM non-essential amino acids, 1 mM sodium pyruvate, at 37° C. in 5% CO2. 3.5×10^4 cells/well were plated in 96-well cell culture plates in growth medium supplemented with 8.3% fetal bovine serum for 16-20 h to ˜90% confluency. For transfection, medium was taken off and LXR and cofactor expressing plasmids as well as the reporter plasmids are added in 30 μL OPTIMEM/well including polyethylene-imine (PEI) as vehicle. Typical amounts of plasmids transfected/well: pCMV-AD-LXR (5 ng), pCMV-BD-cofactor (5 ng), pFR-Luc (100 ng), pRL-CMV (0.5 ng). Compound stocks were prepared in DMSO, prediluted in MEM to a total volume of 120 μL, and added 4 h after addition of the transfection mixture (final vehicle concentration not exceeding 0.2%). Cells were incubated for additional 16 h, lysed for 10 min in 1×Passive Lysis Buffer (Promega) and Firefly and Renilla luciferase activities were measured sequentially in the same cell extract using buffers containing D-luciferine and coelenterazine, respectively. Measurements of luminescence were done in a BMG-luminometer.
# The potencies of Compound 21/3 and its analog, Compound pre-6/3, against LXRα and LXRβ were evaluated in biochemical binding assays, cellular mammalian two-hybrid (M2H) interaction assays evaluating nuclear receptor co-repressor (NCOR) recruitment, and cellular reporter assays evaluating transcriptional activity (Table 5).
SMILES,EC50 [1],EC50 (LXRβ)
N#Cc1sccc1-c1c(-c2cccs2)n(S(=O)(=O)c2ccc(Cl)cc2)c2cc(O)ccc12 [13/1],1 to 10 µM,< 0.1 µM
N#Cc1sccc1-c1c(-c2cccs2)n(S(=O)(=O)c2ccc(Cl)cc2)c2ccc(OCCCC(=O)O)cc12 [15/1],1 to 10 µM,0.1 to 1 µM
N#Cc1sccc1-c1c(-c2cccs2)n(S(=O)(=O)c2ccc(Cl)cc2)c2ccc(OCCCCC(=O)O)cc12 [15/2],> 10 µM,0.1 to 1 µM
N#Cc1sccc1-c1c(-c2cccs2)n(S(=O)(=O)c2ccc(Cl)cc2)c2cc(OCCCC(=O)O)ccc12 [15/4],1 to 10 µM,< 0.1 µM
N#Cc1sccc1-c1c(-c2cccs2)n(S(=O)(=O)c2ccc(Cl)cc2)c2cc(OCCCCC(=O)O)ccc12 [15/5],1 to 10 µM,< 0.1 µM
COc1ccc(S(=O)(=O)n2c(-c3ccc(CCC(=O)O)cc3)c(-c3ccsc3C#N)c3ccccc32)cc1 [15/6],1 to 10 µM,0.1 to 1 µM
N#Cc1ccncc1-c1c(-c2cccs2)n(S(=O)(=O)c2ccc(Cl)cc2)c2ccccc12 [20/2],1 to 10 µM,< 0.1 µM
O=S(=O)(c1ccc(Cl)cc1)n1c(-c2cccs2)c(-c2ccsc2C(F)F)c2ccccc21 [20/3],0.1 to 1 µM,< 0.1 µM
N#Cc1cscc1-c1c(-c2cccs2)n(S(=O)(=O)c2ccc(Cl)cc2)c2ccccc12 [20/4],1 to 10 µM,< 0.1 µM
CS(=O)(=O)c1ccccc1-c1c(-c2cccs2)n(S(=O)(=O)c2ccc(Cl)cc2)c2ccccc12 [20/5],1 to 10 µM,0.1 to 1 µM
N#Cc1cc(F)ccc1-c1c(-c2cccs2)n(S(=O)(=O)c2ccc(Cl)cc2)c2ccccc12 [20/6],0.1 to 1 µM,< 0.1 µM
N#Cc1nccnc1-c1c(-c2cccs2)n(S(=O)(=O)c2ccc(Cl)cc2)c2ccccc12 [20/7],1 to 10 µM,< 0.1 µM
N#Cc1sccc1-c1c(-c2cccs2)n(S(=O)(=O)c2ccc(F)cc2)c2ccccc12 [20/11],0.1 to 1 µM,< 0.1 µM
N#Cc1sccc1-c1c(-c2cccs2)n(S(=O)(=O)c2ccc(F)cc2F)c2ccccc12 [20/12],1 to 10 µM,< 0.1 µM
N#Cc1sccc1-c1c(-c2cccs2)n(S(=O)(=O)c2ccc(Cl)cc2)c2ccccc12 [20/13],0.1 to 1 µM,< 0.1 µM
COC(=O)CCc1ccc(S(=O)(=O)n2c(-c3cccs3)c(-c3ccsc3C#N)c3ccccc32)cc1 [20/15],0.1 to 1 µM,0.1 to 1 µM
COc1ccc(S(=O)(=O)n2c(-c3ccccc3)c(C3=C(C#N)CCCC3)c3ccccc32)cc1 [20/16],1 to 10 µM,0.1 to 1 µM
COc1ccc(S(=O)(=O)n2c(-c3ccccc3)c(C3=C(C#N)c4ccccc4CC3)c3ccccc32)cc1 [20/19],> 10 µM,0.1 to 1 µM
COc1ccc(S(=O)(=O)n2c(-c3ccccc3)c(-c3ccc4ncccc4c3C#N)c3ccccc32)cc1 [20/20],1 to 10 µM,0.1 to 1 µM
COc1ccc(S(=O)(=O)n2c(-c3ccccc3)c(-c3ccsc3C)c3ccccc32)cc1 [20/21],1 to 10 µM,< 0.1 µM
COc1ccc(S(=O)(=O)n2c(-c3ccccc3)c(-c3ccsc3OC)c3ccccc32)cc1 [20/22],0.1 to 1 µM,0.1 to 1 µM
COc1ccc(S(=O)(=O)n2c(-c3ccccc3)c(-c3cc(C)sc3C#N)c3ccccc32)cc1 [20/23],1 to 10 µM,0.1 to 1 µM

SMILES,EC50 [1],EC50 (LXRβ)
N#Cc1ccc(OCC(=O)O)cc1-c1c(-c2cccs2)n(S(=O)(=O)c2ccc(Cl)cc2)c2ccccc12 [21/1],1 to 10 µM,1 to 10 µM
N#Cc1c(OCC(=O)O)cccc1-c1c(-c2cccs2)n(S(=O)(=O)c2ccc(Cl)cc2)c2ccccc12 [21/2],1 to 10 µM,1 to 10 µM
N#Cc1sccc1-c1c(-c2cccs2)n(S(=O)(=O)c2ccc(CCC(=O)O)cc2)c2ccccc12 [23/1],1 to 10 µM,< 0.1 µM
N#Cc1sccc1-c1c(-c2ccc(F)cc2)n(S(=O)(=O)c2ccc(Cl)cc2)c2ccccc12 [26/1],1 to 10 µM,< 0.1 µM
Cc1ccc(S(=O)(=O)n2c(-c3cccc(-c4cccc(C(=O)O)c4)c3)c(-c3ccsc3C#N)c3ccccc32)cc1 [30/1],0.1 to 1 µM,< 0.1 µM
Cc1ccc(S(=O)(=O)n2c(-c3cccc(-c4cccc(C(C)(C)C(=O)O)c4)c3)c(-c3ccsc3C#N)c3ccccc32)cc1 [30/2],1 to 10 µM,0.1 to 1 µM
N#Cc1sccc1-c1c(-c2cccc(CCCC(=O)O)c2)n(S(=O)(=O)c2ccc(Cl)cc2)c2ccccc12 [30/5],1 to 10 µM,< 0.1 µM
N#Cc1sccc1-c1c(-c2cccc(N3CC(C(=O)O)C3)n2)n(S(=O)(=O)c2ccc(Cl)cc2)c2ccccc12 [30/6],1 to 10 µM,0.1 to 1 µM
N#Cc1sccc1-c1c(-c2ccc(C3CC3C(=O)O)s2)n(S(=O)(=O)c2ccc(Cl)cc2)c2ccccc12 (stereo not shown) [30/8],1 to 10 µM,0.1 to 1 µM
N#Cc1sccc1-c1c(-c2cc(Cl)cc(C3CC3C(=O)O)c2)n(S(=O)(=O)c2ccc(Cl)cc2)c2ccccc12 (stereo not shown) [30/9],1 to 10 µM,< 0.1 µM
N#Cc1sccc1-c1c(-c2cccc(N3CCC(C(=O)O)C3)c2)n(S(=O)(=O)c2ccc(Cl)cc2)c2ccccc12 (stereo not shown) [30/11],0.1 to 1 µM,< 0.1 µM
N#Cc1sccc1-c1c(-c2cccc(C3CC3C(=O)O)c2)n(S(=O)(=O)C2CC2)c2ccccc12 (stereo not shown) [30/12],1 to 10 µM,0.1 to 1 µM
Cc1ccc(S(=O)(=O)n2c(-c3cccc(C4CC4C(=O)O)c3)c(-c3ccsc3F)c3ccccc32)cc1 (stereo not shown) [30/14],1 to 10 µM,0.1 to 1 µM
Cc1ccc(S(=O)(=O)n2c(-c3cccc(C4CC4C(=O)O)c3)c(-c3ccc(F)cc3C#N)c3ccccc32)cc1 (stereo not shown) [30/15],1 to 10 µM,0.1 to 1 µM
CS(=O)(=O)NC(=O)C1CC1c1cccc(-c2c(-c3ccsc3C#N)c3ccccc3n2S(=O)(=O)c2ccc(Cl)cc2)c1 (stereo not shown) [32/1],0.1 to 1 µM,< 0.1 µM
N#Cc1sccc1-c1c(-c2cccs2)n(S(=O)(=O)c2ccc(Cl)cc2)c2cc(CCC(=O)O)c(O)cc12 [Compound 17],> 10 µM,1 to 10 µM
O=C(O)c1sccc1-c1c(-c2cccs2)n(S(=O)(=O)c2ccc(Cl)cc2)c2ccccc12 [Compound 21],> 10 µM,1 to 10 µM
NC(=O)c1sccc1-c1c(-c2cccs2)n(S(=O)(=O)c2ccc(Cl)cc2)c2ccccc12 [Compound 22],1 to 10 µM,0.1 to 1 µM
N#Cc1sccc1-c1c(-c2cccs2)n(S(=O)(=O)C2CCCCC2)c2ccccc12 [Compound 24],1 to 10 µM,< 0.1 µM
N#Cc1sccc1-c1c(-c2ccccc2)n(S(=O)(=O)c2ccc(Cl)cc2)c2ccccc12 [Compound 26],0.1 to 1 µM,< 0.1 µM
N#Cc1sccc1-c1c(-c2ccccc2)n(S(=O)(=O)c2ccc(OCC(=O)O)cc2)c2ccccc12 [Compound 27],1 to 10 µM,0.1 to 1 µM
N#Cc1sccc1-c1c(-c2cccc(OCCC(=O)O)n2)n(S(=O)(=O)c2ccc(Cl)cc2)c2ccccc12 [Compound 31],1 to 10 µM,0.1 to 1 µM
